Assay results reported in US12643889B2, “Synthesis of novel EP4 antagonist and use in cancer and inflammation” (Wuhan Humanwell Innovative Drug Research And Development …, priority 2020, dated 2026).

What was measured:
[1] = Mouse pharmacokinetic assay; type: in vivo, male ICR mice; details: male, ICR, plasma
Description: (§1) In a mouse pharmacokinetic assay, male ICR mice (20 g to 25 g) were selected and fasted overnight. Three mice were selected and intragastrically administered with 5 mg/kg of the corresponding compound. The blood of the mice was collected before the administration and at 15 min, 30 min, 1 h, 2 h, 4 h, 8 h, 24 h after the administration. Another 3 mice were intravenously administered with 1 mg/kg of the corresponding compound, and the blood thereof was collected before the administration and at 15 min, 30 min, 1 h, 2 h, 4 h, 8 h, 24 h after the administration. The blood samples were centrifuged at 6800 g at 2° C. to 8° C. for 6 minutes, and plasma was collected and stored at −80° C. The plasma was taken at respective time point, mixed with 3-5 times the amount of acetonitrile containing internal standard, vortexed for 1 minute, centrifuged at 4° C. for 10 minutes at 13000 rpm, supernatant was added 3 times the amount of water, and the appropriate mixture was taken for LC-MS/MS analysis. The primary pharmacokinetic parameters were analyzed with a WinNonlin 7.0 software, with non-compartmental model.

[2] = Canine pharmacokinetic assay; type: in vivo, male Beagle dogs
Description: as §1
In a canine pharmacokinetic assay, male Beagle dogs (8 kg to 10 Kg) were selected and fasted overnight. Three Beagle dogs were taken and intragastrically administered with 3 mg/kg of the corresponding compound. Another 3 Beagle dogs were intravenously administered with 1 mg/kg of the corresponding compound. The following operations were the same as the mouse pharmacokinetic assay.

[3] = Rat pharmacokinetic assay; type: in vivo, male SD rats
Description: as §1
In a rat pharmacokinetic assay, male SD rats (180 g to 240 g) were selected and fasted overnight. Three rats were intragastrically administered with 5 mg/kg of the corresponding compound. Another 3 rats were intravenously administered with 1 mg/kg of the corresponding compound. The following operations were the same as the mouse pharmacokinetic assay.

[4] = target: human EP4 receptor (Homo sapiens, UniProt P35408); assay: Assay of calcium current inhibition on EP4 receptor (FLIPR, 293 cells); type: cell-based; set-up: expressed in transfected cells; host or cells: 293 cells; details: 293 cells overexpressing human EP4; PGE2 at EC80; FLIPR
Description: The cells were rapidly thawed in a 37° C. water bath, centrifuged, resuspended, and counted. The cell suspensions were seeded at 20 μL/well in two 384-well plates (20,000 cells/well) and placed in an incubator (a 37° C., 5% CO2) overnight. Preparation of a 2× Fluo-4 Direct™ (Invitrogen, Cat #F10471) loading buffer: 77 mg of probenecid was added to 1 mL of a FLIPR buffer, with a concentration of 250 mM. 10 mL of FLIPR buffer and 0.2 mL of probenecid (250 mM) were added to each tube of Fluo-4 Direct™ crystals (F10471).
One of the cell plates was taken out of the incubator and the medium was removed. 20 μL of an assay buffer and 2× Fluo-4 Direct™ non-wash loading buffer were added to the 384-well cell culture plate to a final volume of 40 μL, and then the culture plate was incubated in an incubator (a 37° C., 5% CO2) for 50 minutes, and then at room temperature for 10 minutes, and then the plate was placed in the FLIPR. 10 μL of the buffer was transferred to the cell plate and the fluorescence signal was read. The agonist PGE2 was formulated as a 10 mM stock in a DMSO solvent and 10 concentration points of the 6× working solution were serially diluted using the buffer. 10 μL of the agonist PGE2 was transferred to the cell plate, the fluorescence signal was read to calculate EC80 value.
The agonist PGE2 was prepared at 6× EC80 concentration and the compound to be tested was formulated as a 10 mM stock solution in the DMSO solvent and 10 concentration points of the 6× compound working solution was serially diluted using the buffer.
Another cell plate was taken to remove media and 20 μL of the assay buffer and 2× Fluo-4 Direct™ non-wash loading buffer were added; the cell plate was incubated in a 37° C., 5% CO2 incubator for 50 minutes and room temperature for 10 minutes and then placed in the FLIPR. 10 μL of the compound working solution, DMSO, and the EP4 full antagonist were transferred to the cell plate and the fluorescence signal was read. […] Inhibition (%)=100−(test group−EP4 full antagonist group)/(DMSO group−EP4 full antagonist group)*100
Compound's IC50 value of EP4 calcium current inhibition was calculated based on the inhibition rate at different concentrations of the compound.

[5] = target: T1, recombinant human EP4 receptor membrane protein (Homo sapiens, UniProt P35408); assay: Radioligand binding assay for EP4 receptor ([3H]-PGE2); details: [3H]-PGE2 1.5 nM; membrane protein 20 μg/well
T1 construct: expressed in transfected cells; host or cells: membranes of 293 cells overexpressing human EP4 receptor
Description: The compounds to be tested and PGE2 were formulated as 10 mM stocks in a DMSO solvent, and then 8 concentration points of 4× working solution were serially diluted using a buffer (50 mM HBSS, 0.1% BSA, 500 mM NaCl). […] Unifilter-96 GF/C filter plate (Perkin Elmer) was soaked with 0.5% BSA, 50 μL per well, for at least 30 min at room temperature. After binding was complete, the reaction mixture was harvested through a GF/C plate using a Perkin Elmer Filtermate Harvester, followed by washing the filter plate and drying the filter plate for 1 hour at 50° C. After drying, the bottom of the filter plate wells was sealed using a Perkin Elmer Unifilter-96 sealing tape, and 50 μL of MicroScint™-20 cocktail (Perkin Elmer) was added to seal the top of the filter plate. The ^3H counts captured on the filter were read using a Perkin Elmer MicroBeta2 Reader.
The IC50 and Ki values of the compounds determined by the radioligand binding assay for EP4 receptor were calculated based on the inhibition rate of the different concentrations of the compounds.

[6] = intravenous administration 1 mg/kg
[7] = oral gavage administration 5 mg/kg
[8] = male, Beagle, dog, plasma, canine, intravenous administration 1 mg/kg
[9] = male, Beagle, dog, plasma, canine, oral gavage administration 3 mg/kg
[10] = male, SD, plasma, rat, intravenous administration 1 mg/kg
[11] = male, SD, plasma, rat, oral gavage administration 5 mg/kg

T1 sequence (P35408 whole entry): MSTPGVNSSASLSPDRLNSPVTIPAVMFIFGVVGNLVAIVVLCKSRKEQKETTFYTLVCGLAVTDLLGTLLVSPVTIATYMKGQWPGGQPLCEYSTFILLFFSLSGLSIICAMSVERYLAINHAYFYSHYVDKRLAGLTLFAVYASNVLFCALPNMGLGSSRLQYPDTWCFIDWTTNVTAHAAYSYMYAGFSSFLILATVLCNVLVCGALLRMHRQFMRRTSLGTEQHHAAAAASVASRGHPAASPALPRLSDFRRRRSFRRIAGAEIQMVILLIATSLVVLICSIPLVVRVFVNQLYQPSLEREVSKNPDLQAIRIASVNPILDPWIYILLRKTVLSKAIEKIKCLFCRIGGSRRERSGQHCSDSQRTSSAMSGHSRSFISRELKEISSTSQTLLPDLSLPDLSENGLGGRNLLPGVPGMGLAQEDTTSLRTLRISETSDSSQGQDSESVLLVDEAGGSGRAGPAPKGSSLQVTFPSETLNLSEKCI
Sequence of human EP4 receptor (P35408 whole entry): as above

- AUC(0-t) [1, 6]: 1260 ng·h/mL
- clearance [1, 6]: 12.7 mL/min/kg
- half-life [1, 6]: 307 min
- Vd ([1]; intravenous administration 1 mg/kg, read-out: Vz): 5.62 L/kg
- AUC(0-t) [1, 7]: 2710 ng·h/mL
- Cmax [1, 7]: 1450 ng/mL
- Tmax [1, 7]: 19.8 min
- half-life [1, 7]: 420 min
- exposure after oral administration relative to the control compound ([2]; canines, oral administration): about 2 times
- AUC(0-t) [2, 8]: 4370 ng·h/mL
- clearance [2, 8]: 3.5 mL/min/kg
- half-life [2, 8]: 584 min
- Vd ([2]; male, Beagle, dog, plasma, canine, intravenous administration 1 mg/kg, read-out: Vz): 2.84 L/kg
- AUC(0-t) [2, 9]: 10300 ng·h/mL
- Cmax [2, 9]: 4820 ng/mL
- Tmax [2, 9]: 15 min
- half-life [2, 9]: 1190 min
- AUC(0-t) [3, 10]: 1670 ng·h/mL
- clearance [3, 10]: 9.5 mL/min/kg
- half-life [3, 10]: 558 min
- Vd ([3]; male, SD, plasma, rat, intravenous administration 1 mg/kg, read-out: Vz): 7.66 L/kg
- AUC(0-t) [3, 11]: 10800 ng·h/mL
- Cmax [3, 11]: 993 ng/mL
- Tmax [3, 11]: 2 h
- half-life [3, 11]: 592 min
- exposure after oral administration relative to the control compound ([3]; rats, oral administration): about 2 times
- IC50 [4]: 12 nM
- IC50 [5]: 5.3 nM
- Ki [5]: 2.9 nM
SMILES: C[C@H](NC(=O)c1c(C(F)F)nn(C)c1Oc1cccc(C(C)(F)F)c1)c1ccc(C(=O)O)cc1 [Compound I-5, (S)-4-(1-(5-(3-(1,1-difluoroethyl)phenoxy)-3-(difluoromethyl)-1-methyl-1H-pyrazole-4-carboxamido)ethyl)benzoic Acid]
